Results taken from patent US8586755B2, “Substituted nicotinamides as KCNQ2/3 modulators” (Grünenthal GmbH, priority 2009, dated 2013).

Molecular target: T1, KCNQ2/3 channels (Homo sapiens, UniProt O43525+O43526)
T1 construct: expressed in transfected cells
Experiment: Fluorescence assay using a voltage sensitive dye (fluorimetry)
Type: cell-based
Details: CHO-K1 cells expressing KCNQ2/3 channels; for EC50: agonistic activity; for Emax / Fluorimetry % efficacy (retigabine 50 μM = 100%): retigabine 50 μM = 100%; for Emax: read-out: Fluorimetry % efficacy (retigabine 50 μM = 100%)
Summary of the method: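 Agonist EC50s come from the F2 vs F1 fluorescence comparison, F2 taken at the peak after KCl depolarisation (92 mM final) and F1 after 30 min compound exposure at room temperature. Assay uses KCNQ2/3-expressing CHO-K1 cells stained 45 min with a red voltage-sensitive dye in pH 7.4 ES buffer.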

EC50 [nM]	Emax [%]	Fluorimetry % efficacy (retigabine 50 μM = 100%) [%]	SMILES
1050	196	–	COCCNC(=O)c1cccnc1SCCCc1ccc(F)cc1 [compound 172, 2-[3-(4-Fluorophenyl)-propylsulfanyl]-N-(2-methoxy-ethyl)-pyridine-3-carboxylic acid amide]
178	70	–	Cc1ccc(CCCSc2ncccc2C(=O)NCc2cccs2)cc1 [compound 99, 2-[3-(p-Tolyl)-propylsulfanyl]-N-(thiophen-2-yl-methyl)-pyridine-3-carboxylic acid amide]
111	160	–	O=C(NCc1cccs1)c1cccnc1SCCCc1cccc(C(F)(F)F)c1 [compound 18, N-(Thiophen-2-yl-methyl)-2-[3-[3-(trifluoromethyl)phenyl]-propylsulfanyl]-pyridine-3-carboxylic acid amide]
2710	–	77	CC(C)(C)CCNC(=O)c1cccnc1SCC(=O)Cc1ccccc1 [compound 167]
139	171	–	O=C(NCc1ccccc1O)c1cccnc1SCCCc1ccc(F)cc1 [compound 83, 2-[3-(4-Fluorophenyl)-propylsulfanyl]-N-[(2-hydroxyphenyl)-methyl]-pyridine-3-carboxylic acid amide]
126	244	–	O=C(NCC1CC2CCC1C2)c1cccnc1CCCCc1cccc(C(F)(F)F)c1 (stereo not drawn) [compound 26, N-(5-Bicyclo[2.2.1]heptanyl-methyl)-2-[4-[3-(trifluoromethyl)phenyl]-butyl]-pyridine-3-carboxylic acid amide]
494	–	104	O=C(NCc1cccs1)c1ccc(N2CCCC2)nc1SCCCc1ccccc1 [compound 112]
–	–	53	O=C(CCSc1ncccc1C(=O)NCc1cccs1)c1ccccc1 [compound 3]
417	92	–	O=C(NCc1cccc(N2CCOCC2)c1)c1cccnc1SCCCc1ccc(F)cc1 [compound 138, 2-[3-(4-Fluorophenyl)-propylsulfanyl]-N-[(3-morpholin-4-yl-phenyl)-methyl]-pyridine-3-carboxylic acid amide]
49	100	–	O=C(NCc1cccc(F)c1)c1cccnc1SCCCc1ccc(F)cc1 [compound 64, N-[(3-Fluorophenyl)-methyl]-2-[3-(4-fluorophenyl)-propylsulfanyl]-pyridine-3-carboxylic acid amide]
77	104	–	O=C(NCc1ccc(C(F)(F)F)cc1)c1cccnc1SCCCc1ccc(F)cc1 [compound 80, 2-[3-(4-Fluorophenyl)-propylsulfanyl]-N-[[4-(trifluoromethyl)-phenyl]-methyl]-pyridine-3-carboxylic acid amide]
437	98	–	O=C(NCC1CCCCCC1)c1cccnc1CCCS(=O)(=O)c1cccc(C(F)(F)F)c1 [compound 31, N-(Cycloheptyl-methyl)-2-[3-[[3-(trifluoromethyl)phenyl]sulfonyl]-propyl]-pyridine-3-carboxylic acid amide]
182	274	–	O=C(NCC1CC2CCC1C2)c1cccnc1SCCCc1ccc(F)cc1F (stereo not drawn) [compound 62, N-(5-Bicyclo[2.2.1]heptanyl-methyl)-2-[3-(2,4-difluoro-phenyl)-propylsulfanyl]-pyridine-3-carboxylic acid amide]
667	95	–	O=C(NCc1cccc(-c2ccccn2)c1)c1cccnc1SCCCc1ccc(F)cc1 [compound 151, 2-[3-(4-Fluorophenyl)-propylsulfanyl]-N-[(3-pyridin-2-yl-phenyl)-methyl]-pyridine-3-carboxylic acid amide]
37	261	–	CC(CSc1ncccc1C(=O)NCC1CC2CCC1C2)Cc1ccc(F)cc1 (stereo not drawn) [compound 75, N-(5-Bicyclo[2.2.1]heptanyl-methyl)-2-[[3-(4-fluorophenyl)-2-methyl-propyl]sulfanyl]-pyridine-3-carboxylic acid amide]
312	88	–	O=C(NCc1cccc(-n2cccn2)c1)c1cccnc1SCCCc1ccc(F)cc1 [compound 140, 2-[3-(4-Fluorophenyl)-propylsulfanyl]-N-[[3-(1H-pyrazol-1-yl)-phenyl]-methyl]-pyridine-3-carboxylic acid amide]
2960	167	–	O=C(CCSc1ncccc1C(=O)NCC1CC2CCC1C2)c1ccccc1 (stereo not drawn) [compound 44, N-(5-Bicyclo[2.2.1]heptanyl-methyl)-2-[(3-oxo-3-phenyl-propyl)sulfanyl]-pyridine-3-carboxylic acid amide]
–	28	–	O=C(NCc1ccc2ccccc2c1)c1cccnc1SCCCc1ccc(F)cc1 [compound 136, 2-[3-(4-Fluorophenyl)-propylsulfanyl]-N-(naphthalen-2-yl-methyl)-pyridine-3-carboxylic acid amide]

EC50 [nM]	Emax [%]	Fluorimetry % efficacy (retigabine 50 μM = 100%) [%]	SMILES
1350	97	–	O=C(NCc1cccs1)c1cccnc1SCCCC1CCCCC1 [compound 2, 2-(3-Cyclohexyl-propylsulfanyl)-N-(thiophen-2-yl-methyl)-pyridine-3-carboxylic acid amide]
184	241	–	CC(CCSc1ncccc1C(=O)NCC1CC2CCC1C2)c1ccc(F)cc1 (stereo not drawn) [compound 91, N-(5-Bicyclo[2.2.1]heptanyl-methyl)-2-[3-(4-fluorophenyl)-butylsulfanyl]-pyridine-3-carboxylic acid amide]
167	212	–	CCCNC(=O)c1cccnc1SCCC(F)(F)c1ccc(F)cc1 [compound 185, 2-[[3,3-Difluoro-3-(4-fluorophenyl)-propyl]sulfanyl]-N-propyl-pyridine-3-carboxylic acid amide]
–	–	25	O=C(O)c1cccc(CNC(=O)c2cccnc2SCCCc2ccc(F)cc2)c1 [compound 131]
11	125	–	O=C(NCc1ccc(F)cc1)c1cccnc1SCCC(F)(F)c1ccc(F)c(F)c1 [compound 204, 2-[[3-(3,4-Difluoro-phenyl)-3,3-difluoro-propyl]sulfanyl]-N-[(4-fluorophenyl)-methyl]-pyridine-3-carboxylic acid amide]
111	129	–	Cc1cccc(CCCSc2ncccc2C(=O)NCc2cccs2)c1 [compound 103, 2-[3-(m-Tolyl)-propylsulfanyl]-N-(thiophen-2-yl-methyl)-pyridine-3-carboxylic acid amide]
145	67	–	CCN1CCOc2ccc(CNC(=O)c3cccnc3SCCCc3ccc(F)cc3)cc21 [compound 161, N-[(4-Ethyl-3,4-dihydro-2H-[1,4]benzoxazin-6-yl)-methyl]-2-[3-(4-fluorophenyl)-propylsulfanyl]-pyridine-3-carboxylic acid amide]
28	294	–	O=C(NCC12CCC(CC1)C2)c1cccnc1SCCC(F)(F)c1ccc(F)cc1 [compound 205, N-(1-Bicyclo[2.2.1]heptanyl-methyl)-2-[[3,3-difluoro-3-(4-fluorophenyl)-propyl]sulfanyl]-pyridine-3-carboxylic acid amide]
76	192	–	CC(C)CCNC(=O)c1cccnc1SC(C)CCc1ccc(F)cc1 (stereo not drawn) [compound 177, 2-[[3-(4-Fluorophenyl)-1-methyl-propyl]sulfanyl]-N-(3-methyl-butyl)-pyridine-3-carboxylic acid amide]
140	259	–	O=C(NCC1CC2CCC1C2)c1cccnc1SCCCc1cc(F)cc(C(F)(F)F)c1 (stereo not drawn) [compound 69, N-(5-Bicyclo[2.2.1]heptanyl-methyl)-2-[3-[3-fluoro-5-(trifluoromethyl)-phenyl]-propylsulfanyl]-pyridine-3-carboxylic acid amide]
627	–	177	CC(C)(C)C(O)CNC(=O)c1cccnc1SCCCc1ccc(F)cc1 (stereo not drawn) [compound 126]
9	228	–	CC(C)CCNC(=O)c1cccnc1SCCC(F)(F)c1ccc(F)c(F)c1 [compound 209, 2-[[3-(3,4-Difluoro-phenyl)-3,3-difluoro-propyl]sulfanyl]-N-(3-methyl-butyl)-pyridine-3-carboxylic acid amide]
1020	216	–	O=C(NCC1CCCCCC1)c1cccnc1CCCCc1cccc(C(F)(F)F)c1 [compound 25, N-(Cycloheptyl-methyl)-2-[4-[3-(trifluoromethyl)phenyl]-butyl]-pyridine-3-carboxylic acid amide]
1490	–	169	O=C(NCC1CC2CCC1C2)c1cccnc1SCCC(O)c1ccc(F)cc1 (stereo not drawn) [compound 50]
2920	170	–	O=C(NCc1cccs1)c1cccnc1CCCS(=O)(=O)c1cccc(C(F)(F)F)c1 [compound 12, N-(Thiophen-2-yl-methyl)-2-[3-[[3-(trifluoromethyl)phenyl]sulfonyl]-propyl]-pyridine-3-carboxylic acid amide]
40	108	–	CC(CCc1ccc(F)cc1)Sc1ncccc1C(=O)NCc1ccc(F)cc1 (stereo not drawn) [compound 176, N-[(4-Fluorophenyl)-methyl]-2-[[3-(4-fluorophenyl)-1-methyl-propyl]sulfanyl]-pyridine-3-carboxylic acid amide]
156	185	–	O=C(NCc1ccc(F)cc1O)c1cccnc1SCCCc1ccc(F)cc1 [compound 173, N-[(4-Fluoro-2-hydroxy-phenyl)-methyl]-2-[3-(4-fluorophenyl)-propylsulfanyl]-pyridine-3-carboxylic acid amide]
657	159	–	CC(C)(C)CCNC(=O)c1cccnc1SC1CCCC1Cc1ccccc1 (stereo not drawn) [compound 155, 2-[(2-Benzyl-cyclopentyl)sulfanyl]-N-(3,3-dimethyl-butyl)-pyridine-3-carboxylic acid amide]
